Measured values: patent US9464082B2, “Aryl and arylalkyl substituted pyrazolyl and pyrimidinyl tricyclic enones as antioxidant inflammation modulators” (AbbVie Inc., priority 2014, dated 2016)

System: IFNγ-Induced NO Production
Test: Nitric Oxide Suppression Assay (Suppression of IFNγ-Induced NO Production)
Assay type: cell-based
Conditions: RAW264.7; RAW 264.7 mouse macrophage cells; 2 hour pre-treatment with compound (3 μM to 0.3 nM, 10 point curve); 20 ng/mL interferon gamma, ~18 hour; Griess detection; n=2-3 in duplicates
Summary of the method: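 Mouse RAW 264.7 macrophages pre-treated 2 h at 37 °C with compound (3 μM to 0.3 nM, 10 points; DMSO ≤1%), then stimulated with 20 ng/mL interferon gamma for ~18 h. Supernatant nitrite measured by Griess reaction, absorbance 520–550 nm. IC50 from curve fit of signal normalised to IFNγ alone, mean n=2-3 in duplicate.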

| Compound | IC50 [nM] |
| --- | --- |
| C[C@@H]1C(=O)C(C#N)=C[C@]2(c3ccccc3)c3nn(S(C)(=O)=O)cc3CC[C@@H]12 [Example 36, (5aS,6S,9aR)-6-methyl-2-(methylsulfonyl)-7-oxo-9a-phenyl-4,5,5a,6,7,9a-hexahydro-2H-benzo[g]indazole-8-carbonitrile] | 69.3 |
| C[C@@H]1C(=O)C(C#N)=C[C@]2(c3ccccc3)c3n[nH]c(-c4cnn(CC(=O)O)c4)c3CC[C@@H]12 [Example 141, {4-[(5aS,6S,9aR)-8-cyano-6-methyl-7-oxo-9a-phenyl-4,5,5a,6,7,9a-hexahydro-2H-benzo[g]indazol-3-yl]-1H-pyrazol-1-yl}acetic acid] | 4 |
| C[C@@H]1C(=O)C(C#N)=C[C@]2(c3ccccc3)c3nc(Nc4ccccc4)ncc3CC[C@@H]12 (racemic) [Example 9, rac-(6aS,7S,10aR)-2-anilino-7-methyl-8-oxo-10a-phenyl-5,6,6a,7,8,10a-hexahydrobenzo[h]quinazoline-9-carbonitrile] | 5.99 |
| C[C@@H]1C(=O)C(C#N)=C[C@]2(c3ccccc3)c3n[nH]c(-c4ccc(NS(C)(=O)=O)cc4)c3CC[C@@H]12 [Example 112, N-{4-[(5aS,6S,9aR)-8-cyano-6-methyl-7-oxo-9a-phenyl-4,5,5a,6,7,9a-hexahydro-2H-benzo[g]indazol-3-yl]phenyl}methanesulfonamide] | 66.4 |
| C[C@@H]1C(=O)C(C#N)=C[C@]2(c3ccc(C(=O)N4CCCC4)cc3)c3ncncc3CC[C@@H]12 [Example 73, (6aS,7S,10aR)-7-methyl-8-oxo-10a-[4-(pyrrolidin-1-ylcarbonyl)phenyl]-5,6,6a,7,8,10a-hexahydrobenzo[h]quinazoline-9-carbonitrile] | 152 |
| Cc1nc(-c2ccoc2)c2c(n1)[C@@]1(c3ccccc3)C=C(C#N)C(=O)[C@@H](C)[C@@H]1CC2 [Example 23, (6aS,7S,10aR)-4-(3-furyl)-2,7-dimethyl-8-oxo-10a-phenyl-5,6,6a,7,8,10a-hexahydrobenzo[h]quinazoline-9-carbonitrile] | 6.98 |
| COc1nc(Cl)nc2c1CC[C@H]1[C@H](C)C(=O)C(C#N)=C[C@]21c1ccccc1 [Example 102, (6aS,7S,10aR)-2-chloro-4-methoxy-7-methyl-8-oxo-10a-phenyl-5,6,6a,7,8,10a-hexahydrobenzo[h]quinazoline-9-carbonitrile] | 3.97 |
| C[C@@H]1C(=O)C(C#N)=C[C@]2(c3ccccc3)c3nc(-c4cncnc4)ncc3CC[C@@H]12 [Example 49, (6aS,7S,10aR)-7-methyl-8-oxo-10a-phenyl-2-(pyrimidin-5-yl)-5,6,6a,7,8,10a-hexahydrobenzo[h]quinazoline-9-carbonitrile] | 7.15 |
| Cc1nc(-c2ccc3ncccc3c2)c2c(n1)[C@@]1(c3ccccc3)C=C(C#N)C(=O)[C@@H](C)[C@@H]1CC2 [Example 45, (6aS,7S,10aR)-2,7-dimethyl-8-oxo-10a-phenyl-4-(quinolin-6-yl)-5,6,6a,7,8,10a-hexahydrobenzo[h]quinazoline-9-carbonitrile] | 106 |
| CCN(CC)c1ncc2c(n1)[C@@]1(c3ccccc3)C=C(C#N)C(=O)[C@@H](C)[C@@H]1CC2 [Example 30, (6aS,7S,10aR)-2-(diethylamino)-7-methyl-8-oxo-10a-phenyl-5,6,6a,7,8,10a-hexahydrobenzo[h]quinazoline-9-carbonitrile] | 56.8 |
| C[C@@H]1C(=O)C(C#N)=C[C@]2(c3ccccc3)c3n[nH]c(-c4cncc(CO)c4)c3CC[C@@H]12 [Example 126, (5aS,6S,9aR)-3-[5-(hydroxymethyl)pyridin-3-yl]-6-methyl-7-oxo-9a-phenyl-4,5,5a,6,7,9a-hexahydro-2H-benzo[g]indazole-8-carbonitrile] | 9.67 |
| C[C@@H]1C(=O)C(C#N)=C[C@]2(c3ccccc3)c3c(cnn3Cc3ccc(Br)cc3)CC[C@@H]12 [Example 65, (5aS,6S,9aR)-1-(4-bromobenzyl)-6-methyl-7-oxo-9a-phenyl-4,5,5a,6,7,9a-hexahydro-1H-benzo[g]indazole-8-carbonitrile] | 109 |
| C[C@@H]1C(=O)C(C#N)=C[C@]2(c3ccccc3)c3nn(C(=O)Nc4cccnc4)cc3CC[C@@H]12 [Example 48, (5aS,6S,9aR)-8-cyano-6-methyl-7-oxo-9a-phenyl-N-(pyridin-3-yl)-4,5,5a,6,7,9a-hexahydro-2H-benzo[g]indazole-2-carboxamide] | 40.1 |
| Cc1nc(-c2ccc(O)cc2)c2c(n1)[C@@]1(c3ccccc3)C=C(C#N)C(=O)[C@@H](C)[C@@H]1CC2 [Example 108, (6aS,7S,10aR)-4-(4-hydroxyphenyl)-2,7-dimethyl-8-oxo-10a-phenyl-5,6,6a,7,8,10a-hexahydrobenzo[h]quinazoline-9-carbonitrile] | 3.63 |
| C[C@@H]1C(=O)C(C#N)=C[C@]2(c3ccccc3)c3nn(C)c(-c4cncnc4)c3CC[C@@H]12 [Example 177, (5aS,6S,9aR)-2,6-dimethyl-7-oxo-9a-phenyl-3-(pyrimidin-5-yl)-4,5,5a,6,7,9a-hexahydro-2H-benzo[g]indazole-8-carbonitrile] | 10.8 |
| C[C@@H]1C(=O)C(C#N)=C[C@]2(c3ccccc3)c3nc(Nc4ccccc4)nc(-c4cncnc4)c3CC[C@@H]12 [Example 16, (6aS,7S,10aR)-2-anilino-7-methyl-8-oxo-10a-phenyl-4-(pyrimidin-5-yl)-5,6,6a,7,8,10a-hexahydrobenzo[h]quinazoline-9-carbonitrile] | 7.8 |
| C[C@@H]1C(=O)C(C#N)=C[C@]2(c3ccccc3)c3n[nH]c(-c4cccnc4)c3CC[C@@H]12 [Example 86, (5aS,6S,9aR)-6-methyl-7-oxo-9a-phenyl-3-(pyridin-3-yl)-4,5,5a,6,7,9a-hexahydro-2H-benzo[g]indazole-8-carbonitrile] | 3.95 |
| C[C@@H]1C(=O)C(C#N)=C[C@]2(c3ccc(OCc4ccccc4)cc3)c3ncncc3CC[C@@H]12 [Example 120, (6aS,7S,10aR)-10a-[4-(benzyloxy)phenyl]-7-methyl-8-oxo-5,6,6a,7,8,10a-hexahydrobenzo[h]quinazoline-9-carbonitrile] | 5.44 |
| CC(=O)n1cc2c(n1)[C@@]1(c3ccccc3)C=C(C#N)C(=O)[C@@H](C)[C@@H]1CC2 [Example 28, (5aS,6S,9aR)-2-acetyl-6-methyl-7-oxo-9a-phenyl-4,5,5a,6,7,9a-hexahydro-2H-benzo[g]indazole-8-carbonitrile] | 39 |
| C[C@@H]1C(=O)C(C#N)=C[C@]2(c3ccccc3)c3c(cnn3Cc3ccccc3)CC[C@@H]12 (single isomer, unassigned) [Example 57] | 22 |
| C[C@@H]1C(=O)C(C#N)=C[C@]2(c3ccccc3)C3=NN(C)[C@@H](c4ccccc4)[C@H]3CC[C@@H]12 [Example 105, (3R,3aR,5aS,6S,9aR)-2,6-dimethyl-7-oxo-3,9a-diphenyl-3,3a,4,5,5a,6,7,9a-octahydro-2H-benzo[g]indazole-8-carbonitrile] | 34.5 |
| Cc1noc(-c2ccc(-c3ncc4c(n3)[C@@]3(c5ccccc5)C=C(C#N)C(=O)[C@@H](C)[C@@H]3CC4)cc2)n1 [Example 173, (6aS,7S,10aR)-7-methyl-2-[4-(3-methyl-1,2,4-oxadiazol-5-yl)phenyl]-8-oxo-10a-phenyl-5,6,6a,7,8,10a-hexahydrobenzo[h]quinazoline-9-carbonitrile] | 19.7 |
| C[C@@H]1C(=O)C(C(N)=O)=C[C@]2(c3ccccc3)c3ncncc3CC[C@@H]12 [Example 131, (6aS,7S,10aR)-7-methyl-8-oxo-10a-phenyl-5,6,6a,7,8,10a-hexahydrobenzo[h]quinazoline-9-carboxamide] | 1390 |
| C[C@@H]1C(=O)C(C#N)=C[C@]2(c3ccccc3)c3n[nH]cc3CC[C@@H]12 [Example 24, (5aS,6S,9aR)-6-methyl-7-oxo-9a-phenyl-4,5,5a,6,7,9a-hexahydro-2H-benzo[g]indazole-8-carbonitrile] | 67.7 |
| C[C@@H]1C(=O)C(C#N)=C[C@]2(c3ccccc3)c3nn(C(=O)c4ccccc4)cc3CC[C@@H]12 [Example 38, (5aS,6S,9aR)-2-benzoyl-6-methyl-7-oxo-9a-phenyl-4,5,5a,6,7,9a-hexahydro-2H-benzo[g]indazole-8-carbonitrile] | 75.2 |
| COc1nc(-c2ccccc2F)nc2c1CC[C@H]1[C@H](C)C(=O)C(C#N)=C[C@]21c1ccccc1 [Example 25, (6aS,7S,10aR)-2-(2-fluorophenyl)-4-methoxy-7-methyl-8-oxo-10a-phenyl-5,6,6a,7,8,10a-hexahydrobenzo[h]quinazoline-9-carbonitrile] | 37.8 |
| C[C@@H]1C(=O)C(C#N)=C[C@]2(c3cccc(C(=O)O)c3)c3nc(-c4ccc(C(=O)O)cc4)ncc3CC[C@@H]12 [Example 104, 3-[(6aS,7S,10aR)-2-(4-carboxyphenyl)-9-cyano-7-methyl-8-oxo-6,6a,7,8-tetrahydrobenzo[h]quinazolin-10a(5H)-yl]benzoic acid] | 924 |
| C[C@@H]1C(=O)C(C#N)=C[C@]2(c3ccccc3)c3c(c(-c4cccnc4)nn3C)CC[C@@H]12 [Example 26, (5aS,6S,9aR)-1,6-dimethyl-7-oxo-9a-phenyl-3-(pyridin-3-yl)-4,5,5a,6,7,9a-hexahydro-1H-benzo[g]indazole-8-carbonitrile] | 1.3 |
| Cc1nc(-c2ccc(N3CCOCC3)c(Br)c2)c2c(n1)[C@@]1(c3ccccc3)C=C(C#N)C(=O)[C@@H](C)[C@@H]1CC2 [Example 146, (6aS,7S,10aR)-4-[3-bromo-4-(morpholin-4-yl)phenyl]-2,7-dimethyl-8-oxo-10a-phenyl-5,6,6a,7,8,10a-hexahydrobenzo[h]quinazoline-9-carbonitrile] | 52.2 |
| Cc1nc(-c2ccc(-c3ccn[nH]3)cc2)c2c(n1)[C@@]1(c3ccc(F)cc3)C=C(C#N)C(=O)[C@@H](C)[C@@H]1CC2 [Example 83, (6aS,7S,10aR)-10a-(4-fluorophenyl)-2,7-dimethyl-8-oxo-4-[4-(1H-pyrazol-5-yl)phenyl]-5,6,6a,7,8,10a-hexahydrobenzo[h]quinazoline-9-carbonitrile] | 16.4 |
